Data: paper PMC7377239, “Cardiovascular Effects of Polychlorinated Biphenyls and Their Major Metabolites” (Environmental Health Perspectives, 2020)
Counter-ions that a name gives are not always drawn. Like-named read-outs stand apart in the source and are kept apart here.

Test system: iCell cardiomyocytes (human iPSC-derived cardiomyocytes)
Assay: Intracellular Ca2+ flux / beating parameters in iCell cardiomyocytes (FLIPR tetra), 90 min or 24 h
Assay type: cell-based
Details: Homo sapiens, Cardiomyocyte, 0.00 µM = 100.00; for activity at 0.1 µM: 0.10 µM
Experimental: Details on cardiomyocyte cell culture are described in detail elsewhere ([Grimm et al. 2015b]; [Sirenko et al. 2013a]). Briefly, tissue-culture treated 384 well plates were gelatinized with 25μL per well of 0.1% (w/v) gelatin in water for 2 h at 37°C and 5% CO2 . Individual vials of cells were thawed for 4 min in a water bath maintained at 37°C. Thawed cells were resuspended in 10ml plating medium containing 1:500 (vol/vol) penicillin/streptomycin solution at room temperature (RT). Live cell counts for each cell suspension were determined by trypan blue staining and cells were further diluted to provide final cell densities of 2×10^5 viable cells/ml. Thus, 5,000 cells suspended in 25μL media were transferred per well after the gelatin solution had been discarded. Cell culture plates were rested for 30 min at RT before they were incubated for 48 h at 37°C and 5% CO2 . Then, a media exchange with 30μL of fresh maintenance medium containing 1:500 (vol/vol) penicillin/streptomycin solution was performed, and cell media were subsequently changed every 48 h for 12 d. On the experiment day, the medium was completely exchanged with either 25μL (for Ca^2+ flux assay) or 40μL (for imaging) of fresh medium.
Responses of iCell®-cardiomyocytes to drugs and chemicals were evaluated using intracellular Ca^2+ flux measurements ([Grimm et al. 2015b]; [Sirenko et al. 2013b]). For experiments, 20 mM stock solutions of PCBs and PCB metabolites were prepared in DMSO ( 200× ). Chemical working solutions ( 5× ) were prepared using cardiomyocyte maintenance medium and contained 2.5% (vol/vol) DMSO. These chemical master plates were prepared to include all chemicals in concentration–response (0.05, 0.5, 5, 50, and 500μM ). Negative controls included media-only and vehicle control (i.e., 0.5% vol/vol DMSO in cell culture media) wells. Positive assay controls were consistent with previously published reports ([Grimm et al. 2018]) and included TAB ( 50μM ) as a cytotoxic control, and isoproterenol ( 0.1–10μM ), propranolol ( 0.1–5 μM ), cisapride ( 0.01–1μM ), and doxorubicin ( 0.1–5μM ) as chemicals associated with specific effects on beating and ion flux. Each test chemical was screened in triplicate for each concentration.
Experiments started with the addition of 25μL of prewarmed 2× concentrated calcium dye reagent to sample wells containing 25μL maintenance media. Microplates were then acclimated for 2 h at 37°C. Following equilibration, cardiomyocyte sample wells were treated simultaneously by the addition of 12.5μL of prewarmed 5× chemical solution to iCell®-cardiomyocytes using the automated liquid handler in the FLIPR tetra (Molecular Devices). Treated cell cultures were incubated for either 90 min or 24 h. After the conclusion of the treatment period, the Ca^2+ flux was measured for 100 s at a frequency of 8 Hz using the integrated fluorescence plate reader in the FLIPR tetra (Molecular Devices) using an emission wavelength range of λemission=515–575 nm ( λexcitation=470–495 nm ). Additional instrument settings included exposure time per read of 0.05s, a gain of 2000, an excitation intensity of 30%, and an internal temperature of 37°C.
Ca^2+ flux data were processed in R studio (version 1.0.136, with R version 3.3.2; R Development Core Team) as described elsewhere ([Blanchette et al. 2019]; [Burnett et al. 2019]). Calculated quantitative metrics included the means and coefficients of variation (CV) of the peak height, which can be indicative of cytotoxicity, inhibition, or stimulation of beating. Means of peak frequency, an indicator of positive or negative […], and CV of peak spacing, an indicator of irregular beating, were also derived from Ca^2+ flux traces. Finally, the mean ratio of the decay over rise time was calculated. Increases in the decay/rise time ratio are reflective of delayed repolarization and are a measure for QT prolongation. […]

[1] = 1.5 h, read-out: cm.amp.avg.90min
[2] = 1.5 h, read-out: cm.amp.cv.90min
[3] = 1.5 h, read-out: cm.decay.rise.90min
[4] = 1.5 h, read-out: cm.spacing.cv.90min
[5] = 24 h, read-out: cm.amp.avg.24hrs
[6] = 24 h, read-out: cm.amp.cv.24hrs
[7] = 24 h, read-out: cm.decay.rise.24hrs
[8] = 24 h, read-out: cm.spacing.cv.24hrs

O=S(=O)(O)Oc1cc(Cl)ccc1-c1ccccc1 [2-yl PCB 3 sulfate]
activity at 0.01 µM [1]: 107%
activity at 0.01 µM [2]: 102%
activity at 0.01 µM (1.5 h, read-out: cm.bpm.90min): 99.1%
activity at 0.01 µM [3]: 97.6%
activity at 0.01 µM [4]: 134%
activity at 0.1 µM [1]: 107%
activity at 0.1 µM [2]: 90.3%
activity at 0.1 µM (1.5 h, read-out: cm.bpm.90min): 97.8%
activity at 0.1 µM [3]: 94.2%
activity at 0.1 µM [4]: 100%
activity at 1 µM [1]: 102%
activity at 1 µM [2]: 102%
activity at 1 µM (1.5 h, read-out: cm.bpm.90min): 96.5%
activity at 1 µM [3]: 99.3%
activity at 1 µM [4]: 99.6%
activity at 10 µM [1]: 106%
activity at 10 µM [2]: 107%
activity at 10 µM (1.5 h, read-out: cm.bpm.90min): 96.5%
activity at 10 µM [3]: 97.2%
activity at 10 µM [4]: 90.8%
activity at 100 µM [1]: 114%
activity at 100 µM [2]: 117%
activity at 100 µM (1.5 h, read-out: cm.bpm.90min): 84%
activity at 100 µM [3]: 100%
activity at 100 µM [4]: 99%
activity at 0.01 µM [5]: 117%
activity at 0.01 µM [6]: 119%
activity at 0.01 µM (24 h, read-out: cm.bpm.24hrs): 111%
activity at 0.01 µM [7]: 86.8%
activity at 0.01 µM [8]: 109%
activity at 0.1 µM [5]: 63.4%
activity at 0.1 µM [6]: 37.6%
activity at 0.1 µM (24 h, read-out: cm.bpm.24hrs): 53.5%
activity at 0.1 µM [7]: 43.6%
activity at 0.1 µM [8]: 50.5%
activity at 1 µM [5]: 0%
activity at 1 µM [6]: 0%
activity at 1 µM (24 h, read-out: cm.bpm.24hrs): 0%
activity at 1 µM [7]: 0%
activity at 1 µM [8]: 0%
activity at 10 µM [5]: 121%
activity at 10 µM [6]: 81.4%
activity at 10 µM (24 h, read-out: cm.bpm.24hrs): 92.6%
activity at 10 µM [7]: 98.1%
activity at 10 µM [8]: 91.4%
activity at 100 µM [5]: 97.7%
activity at 100 µM [6]: 85.5%
activity at 100 µM (24 h, read-out: cm.bpm.24hrs): 77.3%
activity at 100 µM [7]: 106%
activity at 100 µM [8]: 86.6%

Oc1cccc(-c2ccc(Cl)cc2)c1 [3'-OH PCB3]
activity at 0.01 µM [1]: 95.3%
activity at 0.01 µM [2]: 94.5%
activity at 0.01 µM (1.5 h, read-out: cm.bpm.90min): 97.8%
activity at 0.01 µM [3]: 96.7%
activity at 0.01 µM [4]: 101%
activity at 0.1 µM [1]: 100%
activity at 0.1 µM [2]: 80.2%
activity at 0.1 µM (1.5 h, read-out: cm.bpm.90min): 102%
activity at 0.1 µM [3]: 97.5%
activity at 0.1 µM [4]: 106%
activity at 1 µM [1]: 97.7%
activity at 1 µM [2]: 92.4%
activity at 1 µM (1.5 h, read-out: cm.bpm.90min): 105%
activity at 1 µM [3]: 102%
activity at 1 µM [4]: 98.3%
activity at 10 µM [1]: 90.4%
activity at 10 µM [2]: 103%
activity at 10 µM (1.5 h, read-out: cm.bpm.90min): 130%
activity at 10 µM [3]: 97.2%
activity at 10 µM [4]: 123%
activity at 100 µM [1]: 0%
activity at 100 µM [2]: 0%
activity at 100 µM (1.5 h, read-out: cm.bpm.90min): 0%
activity at 100 µM [3]: 0%
activity at 100 µM [4]: 0%
activity at 0.01 µM [5]: 82.3%
activity at 0.01 µM [6]: 114%
activity at 0.01 µM (24 h, read-out: cm.bpm.24hrs): 104%
activity at 0.01 µM [7]: 102%
activity at 0.01 µM [8]: 105%
activity at 0.1 µM [5]: 110%
activity at 0.1 µM [6]: 78.7%
activity at 0.1 µM (24 h, read-out: cm.bpm.24hrs): 97.4%
activity at 0.1 µM [7]: 94.2%
activity at 0.1 µM [8]: 100%
activity at 1 µM [5]: 88.2%
activity at 1 µM [6]: 107%
activity at 1 µM (24 h, read-out: cm.bpm.24hrs): 99.3%
activity at 1 µM [7]: 102%
activity at 1 µM [8]: 97%
activity at 10 µM [5]: 22%
activity at 10 µM [6]: 101%
activity at 10 µM (24 h, read-out: cm.bpm.24hrs): 56.3%
activity at 10 µM [7]: 44.1%
activity at 10 µM [8]: 54.5%
activity at 100 µM [5]: 0%
activity at 100 µM [6]: 0%
activity at 100 µM (24 h, read-out: cm.bpm.24hrs): 0%
activity at 100 µM [7]: 0%
activity at 100 µM [8]: 0%
